Counter-ions that a name gives are not always drawn.
Tests used:
[1] = target: human LOXL2 (Homo sapiens (Human), UniProt Q9Y4K0); test: Human LOXL2 amine oxidase activity assay (Amplex Red); format: biochemical; conditions: concentrated conditioned media from CHO cells stably expressing human LOXL2; 2 h at 37° C. with compound; DAP substrate
Method in brief: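 Concentrated conditioned medium from CHO cells stably expressing human LOXL2 was preincubated with compound for 2 h at 37 °C in 50 mM borate, pH 8. 1,5-diaminopentane substrate and Amplex Red/HRP were then added. Fluorescence (544/590) was read kinetically every 2 min for 1 h, with activity taken from the linear slope.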

[2] = system: bleomycin-induced lung fibrosis in C57Bl/6 male mice; test: Mouse oropharyngeal bleomycin model of lung fibrosis; format: in vivo; conditions: for efficacy in bleomycin lung fibrosis model, prophylactic dosing: dosed prophylactically at 60 mg/kg p.o.; for efficacy in bleomycin lung fibrosis model, therapeutic dosing: dosed therapeutically at 60 mg/kg p.o.
Procedure: Example B-3: Mouse Oropharyngeal Bleomycin Model of Lung Fibrosis
Lung fibrosis is induced in C57Bl/6 male mice by administering bleomycin (0.1-4 U/kg) via oropharyngeal instillation. Mice are either pretreated with vehicle or test compound (1 day to 1 hour) orally, intraperitoneally, intravenously or subcutaneously before bleomycin installation (prophylactic dosing) or 7-14 days post bleomycin instillation (therapeutic dosing). The route and frequency of dosing are based on previously determined pharmacokinetic properties for the LOXL2 inhibitor in mouse. After bleomycin instillation animals are monitored daily for weight loss and clinical signs for 14-28 days prior to sacrifice. Animals are euthanized at study termination and weighed and blood (for isolation of plasma) and bronchoalveolar lavage are collected and frozen for subsequent analyses. Lungs are removed, weighed, then either inflated and fixed by instillation of 10% formalin and prepared for histological examination or homogenized in 1 ml PBS for collagen determination using a hydroxyproline assay. For histological examination, lung slices are stained with Masson's trichrome or Picro-Sirius red to measure cross-linked collagen as an indicator of fibrosis and an Ashcroft score of lung fibrotic and inflammatory damage determined. In addition, immunohistochemistry of fibrotic proteins such as a-smooth muscle actin can be recorded. For lung hydroxyproline content, 0.5 ml of the lung homogenate is removed and added to 0.5 ml 12 N HCl and the samples heated at 120° C. overnight. After the acid hydrolysis, 25-100 μl of the supernatant is dried down, resuspended in 25 μl water and the hydroxyproline content determined by the addition of 0.5 ml Chloramine T solution (140 mg Chloramine T in 6.5 ml ddH2O+1 ml n-propanol+2.5 ml 1M sodium acetate) and incubation at room temperature for 20 min. After the incubation, 0.5 ml Erlich's solution (1.48 g of 4-(dimethylamino(benzaldehyde) in 7 ml n-propanol+2.88 ml 60% perchloric acid and 0.12 ml ddH2O) is added and incubated at 65° C. for 15 min before reading the absorbance at 550 nm. The concentration of hydroxyproline in each […] is determined from a hydroxyproline (purchased from Sigma) standard curve.

[3] = system: kidney fibrosis in Col4A3 deficient mice; test: Mouse Alport model of kidney fibrosis; format: in vivo; conditions: dosed prophylactically at 30 mg/kg p.o.
Procedure: Example B-7: Mouse Alport Model of Kidney Fibrosis
Mice with mutations in one of the genes of glomerular basement membrane collagen, Collagen IV-a3/a4/a5, have defects in glomerular function with development of kidney fibrosis These mice develop renal dysfunction and die prematurely of renal failure with specific timing dependent on the strain background upon which the mutation is present. LOXL2 inhibitors are administered orally to Col4A3 deficient mice on a SV129 background either prophylactically (ca. weeks 2-3 of age) or therapeutically (ca. weeks 4-6 wks of age). Mice are either sacrificed at a predefined time (7-9 wks of age) or continually dosed until they lose >15% of their body weight which preceeds death by 1-3 days. If specifically terminated, mice are perfused transcardially with PBS, and one kidney clamped at the renal artery and the other perfused with Dynabeads for magnetic isolation of glomeruli. […] RNA from glomeruli and renal cortex is analyzed by real time RT-PCR for genes of interest including MMP-10, MMP-12, IL6, MCP-1, TGF-b1, CTGF, MMP-2, and MMP-9. […] Collagen 1 staining is blindly analyzed for fibrosis scoring, and fibronectin staining is blindly analyzed for glomerulosclerosis scoring. For all studies albuminuria is assessed weekly and BUN at the time of tissue harvest.

human LOXL2, sequence (Q9Y4K0 26-774): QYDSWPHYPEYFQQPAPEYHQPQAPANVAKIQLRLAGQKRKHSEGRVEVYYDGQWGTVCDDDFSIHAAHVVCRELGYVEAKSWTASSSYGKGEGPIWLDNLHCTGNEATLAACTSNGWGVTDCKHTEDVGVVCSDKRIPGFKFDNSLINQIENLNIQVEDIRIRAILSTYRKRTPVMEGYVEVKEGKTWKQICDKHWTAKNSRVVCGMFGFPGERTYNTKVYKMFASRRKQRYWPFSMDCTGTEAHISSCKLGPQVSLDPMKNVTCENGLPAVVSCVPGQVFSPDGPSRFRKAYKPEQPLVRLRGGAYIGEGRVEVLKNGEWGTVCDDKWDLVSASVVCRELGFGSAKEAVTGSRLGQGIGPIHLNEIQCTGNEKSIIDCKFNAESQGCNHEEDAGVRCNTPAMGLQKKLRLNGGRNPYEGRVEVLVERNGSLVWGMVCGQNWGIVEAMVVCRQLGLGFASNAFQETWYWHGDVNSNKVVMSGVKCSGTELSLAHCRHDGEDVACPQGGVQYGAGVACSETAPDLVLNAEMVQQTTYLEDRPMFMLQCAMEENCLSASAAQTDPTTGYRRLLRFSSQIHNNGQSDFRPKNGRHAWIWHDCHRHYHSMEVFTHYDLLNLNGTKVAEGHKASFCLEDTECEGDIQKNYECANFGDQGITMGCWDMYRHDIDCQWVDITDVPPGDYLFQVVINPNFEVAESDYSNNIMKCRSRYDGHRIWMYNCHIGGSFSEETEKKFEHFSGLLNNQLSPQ

SMILES | IC50 [1] [nM] | efficacy in bleomycin lung fibrosis model, prophylactic dosing [2] | efficacy in bleomycin lung fibrosis model, therapeutic dosing [2] | efficacy in Alport kidney fibrosis model, prophylactic dosing [3]
Cl.NCc1cc(Oc2cccc(C(=O)N3C[C@@H](O)[C@H](F)C3)c2)nc(C(F)(F)F)c1 (stereo in doubt) [Compound 1-21, (R,R)-trans-(3-((4-(Aminomethyl)-6-(trifluoromethyl)pyridin-2-yl)oxy)phenyl)(3-fluoro-4-hydroxypyrrolidin-1-yl)methanone hydrochloride] | < 300 | efficacious | efficacious | efficacious
Cl.NCc1cc(Oc2cccc(C(=O)N3C[C@H](O)[C@@H](F)C3)c2)nc(C(F)(F)F)c1 (stereo in doubt) [Compound 1-20, (S,S)-trans-(3-((4-(Aminomethyl)-6-(trifluoromethyl)pyridin-2-yl)oxy)phenyl)(3-fluoro-4-hydroxypyrrolidin-1-yl)methanone hydrochloride] | < 300 | efficacious | efficacious | 
Cl.NCc1cc(Oc2cccc(C(=O)Nc3ccccc3)c2)nc(C(F)(F)F)c1 [Compound 1-7, 3-((4-(Aminomethyl)-6-(trifluoromethyl)pyridin-2-yl)oxy)-N-phenylbenzamide hydrochloride] | < 300 | efficacious |  | 
CS(=O)(=O)CCNC(=O)c1cccc(Oc2cc(CN)cc(C(F)(F)F)n2)c1.Cl [Compound 1-30, 3-((4-(Aminomethyl)-6-(trifluoromethyl)pyridin-2-yl)oxy)-N-(2-(methylsulfonyl)ethyl)benzamide hydrochloride] | < 300 | efficacious |  | 
Cl.NCc1cc(Oc2cccc3c2CCC(=O)N3)nc(C(F)(F)F)c1 [Compound 1-59, 5-((4-(Aminomethyl)-6-(trifluoromethyl)pyridin-2-yl)oxy)-3,4-dihydroquinolin-2(1H)-one hydrochloride] | < 300 | efficacious |  | 
Cl.NCc1cc(Oc2cccc(C(=O)NCCn3cnnn3)c2)nc(C(F)(F)F)c1 [Compound 1-15, N-(2-(1H-Tetrazol-1-yl)ethyl)-3-((4-(aminomethyl)-6-(trifluoromethyl)pyridin-2-yl)oxy)benzamide hydrochloride] | < 300 | efficacious |  | 
Cl.NCc1cc(Oc2cccc(C(=O)N3C[C@@H](O)[C@H](F)C3)c2)nc(C(F)(F)F)c1 (stereo in doubt) [Compound 1-19, Racemic-trans-(3-((4-(aminomethyl)-6-(trifluoromethyl)pyridin-2-yl)oxy)phenyl)(3-fluoro-4-hydroxypyrrolidin-1-yl)methanone hydrochloride] | < 300 | efficacious | efficacious | 
NCc1cc(Oc2cccc3[nH]ccc23)nc(C(F)(F)F)c1 [Compound 1-58, (2-((1H-Indol-4-yl)oxy)-6-(trifluoromethyl)pyridin-4-yl)methanamine] | < 300 |  |  | 
COCC1CN(C(=O)c2cccc(Oc3cc(CN)cc(C(F)(F)F)n3)c2)C1 [Compound 1-206, (3-((4-(Aminomethyl)-6-(trifluoromethyl)pyridin-2-yl)oxy)phenyl)(3-(methoxymethyl)azetidin-1-yl)methanone hydrochloride] | < 300 |  |  | 
NCc1cc(NC(=O)c2cccc(C(=O)O)c2)nc(C(F)(F)F)c1 [Compound 1-239, 3-((4-(Aminomethyl)-6-(trifluoromethyl)pyridin-2-yl)carbamoyl)benzoic acid trifluoroacetate] | < 300 |  |  | 
NCc1cc(Oc2cccc(Oc3ccccc3)c2)nc(C(F)(F)F)c1 [Compound 1-3, (2-(3-Phenoxyphenoxy)-6-(trifluoromethyl)pyridin-4-yl)methanamine trifluoroacetate] | < 300 |  |  | 
NCc1cc(Oc2cncc(C(=O)N3C[C@@H](O)[C@H](F)C3)c2)nc(C(F)(F)F)c1 (racemic) [Compound 1-55, Racemic-trans-(5-((4-(aminomethyl)-6-(trifluoromethyl)pyridin-2-yl)oxy)pyridin-3-yl)(-3-fluoro-4-hydroxypyrrolidin-1-yl)methanone hydrochloride] | < 300 |  |  | 
NCc1cc(Oc2cccc(C(=O)NCC3(O)CCC3)c2)nc(C(F)(F)F)c1 [Compound 1-201, 3-((4-(Aminomethyl)-6-(trifluoromethyl)pyridin-2-yl)oxy)-N-((1-hydroxycyclobutyl)methyl)benzamide hydrochloride] | < 300 |  |  | 
